Laboratory results from US6534524B1, “Indazole compounds and pharmaceutical compositions for inhibiting protein kinases, and methods for their use” (Agouron Pharmaceuticals, Inc., priority 1999, dated 2003).

Test system: human umbilical vein endothelial cells (HUVEC)
Assay: HUVEC proliferation assay (VEGF-stimulated, MTT);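 as to % inhibition of the proliferation of HUVEC: relative to VEGF-stimulated control minus starvation-medium baseline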
Format: cell-based
Conditions: crude reaction mixtures; for % inhibition: Library III, HUVEC proliferation, nominal concentration of 0.5 nM
[1] = Library II, Y=S, 0.5 mM (column head; text: nominal 0.5 nM)
[2] = Library II, Y=S, 2 mM (column head; text: nominal 2 nM)
[3] = Library I, Y = CO, nominal concentration of 10 nM
[4] = Library I, Y = NH, nominal concentration of 10 nM
[5] = Library I, Y = O, nominal concentration of 10 nM

Compound	% inhibition [%]	further results
Cc1nnc(NC(=O)c2ccccc2Sc2ccc3c(/C=C/c4ccccn4)n[nH]c3c2)s1	−20	
O=C(Nc1cccc(OC(F)(F)F)c1)c1ccccc1Sc1ccc2c(/C=C/c3ccccn3)n[nH]c2c1	5	
CCOCCCNC(=O)c1ccccc1Sc1ccc2c(/C=C/c3ccccn3)n[nH]c2c1		% inhibition of the proliferation of HUVEC [1]: 44%; % inhibition of the proliferation of HUVEC [2]: 97%
O=C(NC1CCSC1=O)c1ccccc1Sc1ccc2c(/C=C/c3ccccn3)n[nH]c2c1 (centres unmarked) [drawing 785]		% inhibition of the proliferation of HUVEC [1]: 25%; % inhibition of the proliferation of HUVEC [2]: 40%
Nc1ccccc1CNC(=O)c1ccccc1Sc1ccc2c(/C=C/c3ccccn3)n[nH]c2c1	46	
CSCCNC(=O)c1ccccc1Sc1ccc2c(/C=C/c3ccccn3)n[nH]c2c1	18	
NC(=O)CCNC(=O)c1ccccc1Sc1ccc2c(/C=C/c3ccccn3)n[nH]c2c1		% inhibition of the proliferation of HUVEC [1]: 8%; % inhibition of the proliferation of HUVEC [2]: 18%
Cc1ccc(CNC(=O)c2ccccc2Sc2ccc3c(/C=C/c4ccccn4)n[nH]c3c2)cc1Cl	−16	
O=C(Nc1cc(O)c2ccccc2n1)c1ccccc1Sc1ccc2c(/C=C/c3ccccn3)n[nH]c2c1	4	
CC(C)OCCCNC(=O)c1ccccc1Sc1ccc2c(/C=C/c3ccccn3)n[nH]c2c1		% inhibition of the proliferation of HUVEC [1]: 34%; % inhibition of the proliferation of HUVEC [2]: 99%
COc1cccc(CNC(=O)c2ccccc2Sc2ccc3c(/C=C/c4ccccn4)n[nH]c3c2)c1OC	10	
Cc1cccc(C(C)C)c1NC(=O)c1ccccc1Sc1ccc2c(/C=C/c3ccccn3)n[nH]c2c1	−37	
Cc1nc(NC(=O)c2ccccc2Sc2ccc3c(/C=C/c4ccccn4)n[nH]c3c2)n[nH]1	0	
O=C(NCCc1c[nH]cn1)c1ccccc1Sc1ccc2c(/C=C/c3ccccn3)n[nH]c2c1		% inhibition of the proliferation of HUVEC [1]: 23%; % inhibition of the proliferation of HUVEC [2]: −32%
O=C(Nc1ncccc1O)c1ccccc1Sc1ccc2c(/C=C/c3ccccn3)n[nH]c2c1	4	
CSCCCNC(=O)c1ccccc1Sc1ccc2c(/C=C/c3ccccn3)n[nH]c2c1		% inhibition of the proliferation of HUVEC [1]: 44%; % inhibition of the proliferation of HUVEC [2]: 100%
CCN(CC)c1ccc(NC(=O)c2ccccc2Sc2ccc3c(/C=C/c4ccccn4)n[nH]c3c2)cc1	−9	
CCCCCCNC(=O)c1ccccc1Sc1ccc2c(/C=C/c3ccccn3)n[nH]c2c1		% inhibition of the proliferation of HUVEC [1]: 21%; % inhibition of the proliferation of HUVEC [2]: 90%
NC(=O)c1ccc(NC(=O)c2ccccc2Sc2ccc3c(/C=C/c4ccccn4)n[nH]c3c2)cc1	2	
CC(C)(C)C1CCC(NC(=O)c2ccccc2Sc2ccc3c(/C=C/c4ccccn4)n[nH]c3c2)CC1 (centres unmarked)	0	
O=C(NC1(CO)CCCC1)c1ccccc1Sc1ccc2c(/C=C/c3ccccn3)n[nH]c2c1	−5	
O=C(NC1CCCc2ccccc21)c1ccccc1Sc1ccc2c(/C=C/c3ccccn3)n[nH]c2c1 (centres unmarked)	1	
O=C(NCc1ccccc1Cl)c1ccccc1Sc1ccc2c(/C=C/c3ccccn3)n[nH]c2c1	7	
O=C(NCCc1cccc(Cl)c1)c1ccccc1Sc1ccc2c(/C=C/c3ccccn3)n[nH]c2c1	0	

Compound	% inhibition [%]	further results
O=C(NC1CCCCC1C1CCCCC1)c1ccccc1Sc1ccc2c(/C=C/c3ccccn3)n[nH]c2c1 (centres unmarked)	11	
Nc1ccc(CCNC(=O)c2ccccc2Sc2ccc3c(/C=C/c4ccccn4)n[nH]c3c2)cc1		% inhibition of the proliferation of HUVEC [1]: 32%; % inhibition of the proliferation of HUVEC [2]: 31%
COC(=O)c1ccc(C)c(NC(=O)c2ccccc2Sc2ccc3c(/C=C/c4ccccn4)n[nH]c3c2)c1	−9	
Cc1ccc(NC(=O)c2ccccc2Sc2ccc3c(/C=C/c4ccccn4)n[nH]c3c2)c(F)c1	2	
NC(=O)c1[nH]cnc1NC(=O)c1ccccc1Sc1ccc2c(/C=C/c3ccccn3)n[nH]c2c1	−1	
COc1ccc(NC(=O)c2ccccc2Sc2ccc3c(/C=C/c4ccccn4)n[nH]c3c2)c(OC)n1	20	
CNC(=O)c1ccccc1Sc1ccc2c(/C=C/c3ccccn3)n[nH]c2c1 [drawing 635]		% inhibition of the proliferation of HUVEC [1]: 8%; % inhibition of the proliferation of HUVEC [2]: 21%
Cc1csc(NC(=O)c2ccccc2Sc2ccc3c(/C=C/c4ccccn4)n[nH]c3c2)n1		% inhibition of the proliferation of HUVEC [1]: 15%; % inhibition of the proliferation of HUVEC [2]: 95%
CN1CCCC1CCNC(=O)c1ccccc1Sc1ccc2c(/C=C/c3ccccn3)n[nH]c2c1 (centres unmarked)		% inhibition of the proliferation of HUVEC [1]: 30%; % inhibition of the proliferation of HUVEC [2]: 23%
N#Cc1c(NC(=O)c2ccccc2Sc2ccc3c(/C=C/c4ccccn4)n[nH]c3c2)sc2c1CCC2	−9	
O=C(Nc1ccncn1)c1ccccc1Sc1ccc2c(/C=C/c3ccccn3)n[nH]c2c1	−10	
O=C(Nc1ccc2[nH]nnc2c1)c1ccccc1Sc1ccc2c(/C=C/c3ccccn3)n[nH]c2c1	−7	
Cc1ccc(CNC(=O)c2ccccc2Sc2ccc3c(/C=C/c4ccccn4)n[nH]c3c2)cc1C	−6	
CC(C)C(CO)NC(=O)c1ccccc1Sc1ccc2c(/C=C/c3ccccn3)n[nH]c2c1 (centres unmarked)		% inhibition of the proliferation of HUVEC [1]: 21%; % inhibition of the proliferation of HUVEC [2]: −5%
CC(CO)(CO)NC(=O)c1ccccc1Sc1ccc2c(/C=C/c3ccccn3)n[nH]c2c1	−18	
COc1ccc(CNC(=O)c2ccccc2Sc2ccc3c(/C=C/c4ccccn4)n[nH]c3c2)cc1OC	7	
O=C(Nc1ncnc2[nH]ncc12)c1ccccc1Sc1ccc2c(/C=C/c3ccccn3)n[nH]c2c1	4	
Cc1cnc(NC(=O)c2ccccc2Sc2ccc3c(/C=C/c4ccccn4)n[nH]c3c2)s1		% inhibition of the proliferation of HUVEC [1]: 20%; % inhibition of the proliferation of HUVEC [2]: 92%
CC(C)(CO)NC(=O)c1ccccc1Sc1ccc2c(/C=C/c3ccccn3)n[nH]c2c1	−2	
Cc1ccc(O)c(NC(=O)c2ccccc2Sc2ccc3c(/C=C/c4ccccn4)n[nH]c3c2)c1	−1	
O=C(NCCc1ccccc1Cl)c1ccccc1Sc1ccc2c(/C=C/c3ccccn3)n[nH]c2c1	9	
CCOC(=O)c1ccccc1NC(=O)c1ccccc1Sc1ccc2c(/C=C/c3ccccn3)n[nH]c2c1	−4	
CCOCCNC(=O)c1ccccc1Sc1ccc2c(/C=C/c3ccccn3)n[nH]c2c1 [drawing 732]		% inhibition of the proliferation of HUVEC [1]: 53%; % inhibition of the proliferation of HUVEC [2]: 75%
O=C(Nc1ccc(Cl)c(Cl)c1)c1ccccc1Sc1ccc2c(/C=C/c3ccccn3)n[nH]c2c1	8	

Compound	% inhibition [%]	further results
O=C(Nc1ccc(Cl)nn1)c1ccccc1Sc1ccc2c(/C=C/c3ccccn3)n[nH]c2c1	−21	
O=C(Nc1ccc2[nH]c(=O)[nH]c2c1)c1ccc2c(-c3nc4ccccc4[nH]3)n[nH]c2c1 [drawing 582]		% inhibition of the proliferation of HUVEC [3]: 42%; % inhibition of the proliferation of HUVEC [4]: 6%; % inhibition of the proliferation of HUVEC [5]: 13%
O=C(Nc1nc(O)nc2[nH]ncc12)c1ccccc1Sc1ccc2c(/C=C/c3ccccn3)n[nH]c2c1	−43	
CCCCCc1ccc(NC(=O)c2ccccc2Sc2ccc3c(/C=C/c4ccccn4)n[nH]c3c2)cc1	13	
O=C(Nc1cnccn1)c1ccc2c(-c3nc4ccccc4[nH]3)n[nH]c2c1 [drawing 595]		% inhibition of the proliferation of HUVEC [3]: −11%; % inhibition of the proliferation of HUVEC [4]: −7%; % inhibition of the proliferation of HUVEC [5]: 52%
O=C(Nc1cccc(Cl)c1)c1ccccc1Sc1ccc2c(/C=C/c3ccccn3)n[nH]c2c1 [drawing 1041]	−15	
CCN1CC(NC(=O)c2ccccc2Sc2ccc3c(/C=C/c4ccccn4)n[nH]c3c2)CN1CC		% inhibition of the proliferation of HUVEC [1]: 2%; % inhibition of the proliferation of HUVEC [2]: −19%
CC(C)CC(CO)NC(=O)c1ccccc1Sc1ccc2c(C=Cc3ccccn3)n[nH]c2c1 (centres unmarked) [drawing 1021]	−2	
O=C(Nc1cccc2ccccc12)c1ccccc1Sc1ccc2c(/C=C/c3ccccn3)n[nH]c2c1	−33	
O=C(Nc1ccc2[nH]ncc2c1)c1ccccc1Sc1ccc2c(/C=C/c3ccccn3)n[nH]c2c1	22	
O=C(Nc1nnn[nH]1)c1ccccc1Sc1ccc2c(/C=C/c3ccccn3)n[nH]c2c1		% inhibition of the proliferation of HUVEC [1]: 21%; % inhibition of the proliferation of HUVEC [2]: 64%
O=C(NCCc1ccccc1F)c1ccccc1Sc1ccc2c(/C=C/c3ccccn3)n[nH]c2c1	2	
O=C(NCC1(O)CCCCC1)c1ccccc1Sc1ccc2c(/C=C/c3ccccn3)n[nH]c2c1 [drawing 688]		% inhibition of the proliferation of HUVEC [1]: 26%; % inhibition of the proliferation of HUVEC [2]: −19%
O=C(O)CNC(=O)CCNC(=O)c1ccccc1Sc1ccc2c(/C=C/c3ccccn3)n[nH]c2c1		% inhibition of the proliferation of HUVEC [1]: 49%; % inhibition of the proliferation of HUVEC [2]: −9%
Cc1ccc(NC(=O)c2ccccc2Sc2ccc3c(/C=C/c4ccccn4)n[nH]c3c2)nc1	−20	
CCCCOCCCNC(=O)c1ccccc1Sc1ccc2c(/C=C/c3ccccn3)n[nH]c2c1	−12	
COC(CNC(=O)c1ccccc1Sc1ccc2c(/C=C/c3ccccn3)n[nH]c2c1)OC		% inhibition of the proliferation of HUVEC [1]: 47%; % inhibition of the proliferation of HUVEC [2]: 89%
O=C(Nc1cccc(-c2ccccc2)c1)c1ccccc1Sc1ccc2c(/C=C/c3ccccn3)n[nH]c2c1	−13	
O=C(Nc1ccc(Cl)nc1)c1ccccc1Sc1ccc2c(/C=C/c3ccccn3)n[nH]c2c1	2	
O=C(Nc1ccc(F)cc1)c1ccccc1Sc1ccc2c(/C=C/c3ccccn3)n[nH]c2c1	−1	
Cc1cccc(C)c1NC(=O)c1ccccc1Sc1ccc2c(/C=C/c3ccccn3)n[nH]c2c1	−20	
COc1ccc(CNC(=O)c2ccccc2Sc2ccc3c(/C=C/c4ccccn4)n[nH]c3c2)c(OC)c1	13	
O=C(N[C@H]1CC[C@H](O)CC1)c1ccccc1Sc1ccc2c(/C=C/c3ccccn3)n[nH]c2c1	18	
O=C(Nc1cc2ccccc2cc1O)c1ccccc1Sc1ccc2c(/C=C/c3ccccn3)n[nH]c2c1	18	
